Consider three molecules from patent US20110312015A1, “RAPID THROMBOCHEK TEST KIT BASED ON WHOLE BLOOD SCREENING TEST TO DETECT PLATELET HYPERAGGREGATION AT A TEMPERATURE OF 37ºC IN THE CLINICAL LABORATORY” (priority 2008, published 2011).

Read-outs that look alike come from different tables or passages of the source.

One test relates to platelets. Kind of test: Platelet aggregation in blood anticoagulated with D-Phe-Pro-Arg chloromethyl ketone dihydrochloride. It is filed as cell-based. The conditions noted are these: aggregation caused by addition of agonist. An excerpt: Heparin, Na Citrate 3.2% can also be used instead of citrate 3.8% as anticoagulant to study platelet hyperaggregation.
Another test deals with platelets in whole blood. To be noted: 0.5 uM Epinephrine, 180 seconds.
The next test concerns hyperactive platelets. Kind of test: Assessment of efficacy of antiplatelet treatment in patients by Rapid Thrombochek test and microscopic method. It is filed as in vivo, human. The conditions noted are these: twenty myocardial infarction patients on daily aspirin for minimum 3 weeks; both methods. As for the experimental part: Tests were carried out on healthy adults (male and female) and the normals were established. The test was carried out on patients of diabetes mellitus and known cases of myocardial infarction. […] All the smears were prepared by taking a drop of blood on slide and making a smear by cover slide method of smear preparation. All the smears were fixed in alcohol after drying and stained with […] stain and examined under oil immersion lense. Platelets free and in aggregates were counted and percentage of aggregation was worked out. TWENTY PATIENTS OF MYOCARDIAL INFARCTION ON DAILY ASPIRIN FOR MINIMUM PERIOD OF 3 WEEKS WERE TESTED BY […] WELL AS BY MICROSCOPIC METHOD FOR ASSESSMENT OF EFFICACY OF ANTIPLATELET TREATMENT.

Procedure for platelets in whole blood: Collecting a blood sample from an individual in EDTA anticoagulant vacutainer first and then taking blood in trisodium citrate-anticoagulant vacutainer with the same venipuncture and mixing both the samples with the respective anticoagulants at least 15 to 20 times by inversion and allowing EDTA sample to stand at room temperature for a minimum of 20 minutes and then within two hours of collection, the EDTA sample is analysed on an automated hematology analyser to determine the platelet count and appropriate aliquote of citrate sample is taken in a plastic cuvette with a magnetic bar and stirred for 3 minutes at 37° C. and a weak agonist of platelet aggregation in low concentration is added to stirred citrate sample and further stirred for another three minutes at 37° C. At the end of these last three minutes the stirred citrate agonist treated sample is analysed on an hematology analyser for platelet count. Difference between EDTA platelet count and agonist treated stirred citrate platelet count, percentage of platelet aggregation is calculated by dividing the difference by EDTA platelet count and multiplying it by 100.
All samples were collected in the morning when the subjects were fasting. Blood was collected in Plain vaccutainer then EDTA vacutainer by a clean venipuncture using a 20 G needle and then in the 3.8% Na citrate (1:10 dil) vacutainer. Both these anticoagulated blood samples were thoroughly mixed with respective anticoagulants by inversion (15 to 20 times) and the EDTA sample was made to stand at room temperature for 20 minutes after collection and only then analysed for platelet count measurements on the automated hematology analyser. Both samples were analysed within two hours of collection. […]

Turning to “D-Phe-Pro-Arg chloromethyl ketone dihydrochloride”, the “Effect on agonist-induced platelet aggregation when used as anticoagulant” value in the test on platelets is given as “substantial disaggregation of platelet aggregation”.
For the molecule `CNC[C@H](O)c1ccc(O)c(O)c1` [Epinephrine, Epinephrine bitartrate], the “Platelet Aggregation % at 180 sec. at 37° C., mean (SD)” value is 35 (12) % in the test with platelets in whole blood (Diabetes patients), 29 (11) % with platelets in whole blood (MI (myocardial infarction) patients) and 14.5 (7) % with platelets in whole blood (Normal group (healthy adults)).
Turning to `CC(=O)Oc1ccccc1C(=O)O` [ASPIRIN, Aspirin], the “Efficacy of antiplatelet treatment (hyperactive platelets above normal range)” value with hyperactive platelets was “LESS THAN EFFECTIVE IN FOUR OF THEM”.
